Reference: publication PMC12916490 (Molecular Psychiatry, 2025)
Read-outs that look alike come from different tables or passages of the source.

Assays:
hD2 = biological target: T1, hD2 (Homo sapiens, UniProt P14416); experiment: Radioligand binding, hD2 receptor ([3H]spiperone)
T1 construct: expressed in transfected cells; host or cells: HEK 293 cells (membrane preparation)
Protocol: Binding affinities at human monoamine receptors and transporters were assessed as previously reported. A detailed description of the methodology is provided in the Supplementary information.
(§1) Data analysis was performed with Prism software (version 10.1.2, GraphPad Software, Boston, MA, USA). The IC50 values from the radioligand binding assays were determined by nonlinear regression, using three independent concentration-response curves fitted to a one-site model. The Cheng-Prusoff equation was used to calculate Kᵢ values for the competing ligands. EC50 values were determined by applying nonlinear regression to concentration-response curves. Bias factors (β) were calculated based on the relative intrinsic activity approach. More detailed information can be found in the Supplementary information. Mean values for total number of HTR, change in body temperature from pre to post session (Δ°C), and total distance traveled (cm) for each drug dose were compared (p < 0.05) via Welch’s ANOVA with Dunnett’s T3 post test, comparing all doses to respective vehicle controls (0 mg/kg). Welch’s ANOVA with Dunnett’s T3 post test was also used to compare drug concentrations, but the data were compared to DOM in this case. Dose–response relationships for HTR and locomotor activities were plotted using bell-shaped curve fits, while temperature change data were plotted using four-parameter non-linear regression curve fits. The ascending phase of the HTR curve for each drug was used to determine ED50 potency values from four parameter non-linear regression fits. For combined DOM and DOAM administration, the plasma, brain tissue, and brain dialysate drug concentrations were compared using paired t-tests (p < 0.05). Ratios were compared using Holm-Sidak’s post hoc test following a repeated-measures one-way ANOVA (F (1.709, 6.835) = 70.80; p < 0.0001).
3.1 Assessment of receptor and transporter binding affinities
Membrane preparations were prepared from cells transfected with the respective target. The membrane preparations were then incubated with selective radioligands at concentrations equal to the corresponding Kd and displacement of the ligand by the drugs was measured. The difference between total binding and nonspecific binding (determined in the presence of selective competitors) was defined as specific binding of the radioligand to the target receptor. The following transfected cell lines were used for the binding assays: HEK 293 cells (h5-HT1A, h5-HT2A, h5-HT2B, h5-HT2C, and hD2 receptors, hDAT, hNET, and hSERT), Chinese hamster ovary cells (hα 1A receptor), and Chinese hamster lung cells (hα 2A receptor).
3.1.1 Membrane preparations for receptor and transporter binding
For producing membrane preparations, transfected cells were harvested with trypsin/EDTA, washed with ice-cold phosphate buffered saline, and then pelleted by centrifugation (210 × g for 5 min at 4 °C). The pellets were frozen and stored at -80 °C until use. Frozen pellets were resuspended in 20 m L (receptor binding) or 400 m L (transporter binding) buffer (20 mM HEPES -NaOH, 10 mM EDTA, pH 7.4), and homogenized at 1,100 × g for 20 s (receptor binding) or 560 × g for 15 s (transporter binding); the homogenates were then centrifuged at 48,000 × g for 30 min at 4 °C. […]
Competitive binding at the h5-HT1A and h5-HT2A receptor was determined using 0.90 nM [ 3H]8-hydroxy-2-(di-n-propylamine)tetralin ([ 3H]8-OH-DPAT; h5-HT1A receptor agonist) and 0.40 nM [3H]ketanserin (h5-HT2 receptor antagonist) as radioligands. […]

C57BL/6 J mice = experiment: Locomotor activity in mice (dose-response sessions); type: in vivo, mouse; details: 30-min session, mean ± SEM
Protocol: Behavioral studies were conducted as previously described with minor modifications. Male C57BL/6 J mice (The Jackson Laboratory #000664, 24 mice/drug) were purchased at 8 weeks old, group housed for acclimation (3–5 per cage for 1–2 weeks) under a 12:12 light:dark cycle (07:00 local time = lights on), with ad libitum access to food and water at the NIDA IRP facilities in Baltimore, MD, USA. All experiments were approved by the NIDA IRP Animal Care and Use Committee. After acclimation to the vivarium facilities, each mouse was briefly anesthetized with isoflurane and a temperature transponder (14 × 2 mm, model IPTT-300, Bio Medic Data Systems, Inc., Seaford, DE, USA) was implanted subcutaneously (s.c.) on the back, posterior to the shoulder blades. After the implant, mice were single housed and allowed one week recovery prior to the start of experiments. […] Drugs were randomly assigned and administered s.c. as the weight of the form used at an injection volume of 0.01 mL/g body weight.
During experimental testing, mice were tested once every 1–2 weeks to avoid potential tolerance to behavioral effects of the test drugs and were tested 2–3 times in total per drug. Each test session began with a brief 5 min acclimation period to the testing arenas, followed by recording baseline body temperature using a handheld wand that was sensitive to the signals emitted from the s.c. transponder. After this, mice were injected s.c. with appropriate doses of test drug and returned to the chambers for a 30-min test session. During the dose-response sessions, locomotor activity was continuously recorded using open field chambers with photobeam arrays (Coulbourn Instruments, Holliston, MA, USA) that were modified with cylindrical inserts and custom floor panels that also allowed video recordings of each mouse to later quantify HTR activity (GoPro Hero 7 camera; 960p resolution at 120 frames per second). Videos for each mouse were analyzed post session using commercially available software used to quantify HTR as previously described.
as §1
Locomotor activity and body temperature were also assessed to monitor other pharmacological effects of the drugs that may impact the HTR. […]

h5-HT2C = biological target: T2, h5-HT2C (Homo sapiens, UniProt P28335); experiment: cell-based; details: for Emax: read-out: IP1 formation Emax h5-HT2C (95% CI)
T2 sequence (P28335 33-458): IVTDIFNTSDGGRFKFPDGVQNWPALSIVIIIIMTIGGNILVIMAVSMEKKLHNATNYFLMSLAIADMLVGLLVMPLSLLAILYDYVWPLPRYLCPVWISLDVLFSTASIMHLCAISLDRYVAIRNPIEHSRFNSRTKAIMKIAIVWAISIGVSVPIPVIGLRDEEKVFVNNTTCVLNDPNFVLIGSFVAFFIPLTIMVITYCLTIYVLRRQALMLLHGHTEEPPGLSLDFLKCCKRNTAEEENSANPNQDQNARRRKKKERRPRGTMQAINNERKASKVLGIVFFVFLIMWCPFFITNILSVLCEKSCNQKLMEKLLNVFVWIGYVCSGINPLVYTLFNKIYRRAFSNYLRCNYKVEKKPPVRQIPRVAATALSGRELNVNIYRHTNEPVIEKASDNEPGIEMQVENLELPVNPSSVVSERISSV

T1 sequence (P14416 whole entry): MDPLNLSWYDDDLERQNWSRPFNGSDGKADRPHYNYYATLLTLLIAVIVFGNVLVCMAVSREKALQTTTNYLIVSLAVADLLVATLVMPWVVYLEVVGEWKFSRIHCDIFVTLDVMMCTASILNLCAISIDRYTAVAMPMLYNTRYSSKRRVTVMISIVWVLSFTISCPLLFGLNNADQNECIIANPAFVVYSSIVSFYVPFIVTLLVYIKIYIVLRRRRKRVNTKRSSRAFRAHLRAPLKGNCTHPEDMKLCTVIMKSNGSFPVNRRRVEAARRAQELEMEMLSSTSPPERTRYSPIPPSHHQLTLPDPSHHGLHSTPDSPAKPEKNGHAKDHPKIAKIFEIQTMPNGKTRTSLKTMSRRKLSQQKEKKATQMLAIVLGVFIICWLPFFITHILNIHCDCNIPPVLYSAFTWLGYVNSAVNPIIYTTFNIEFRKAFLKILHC

Compound	Ki (hD2) [nM]	Locomotor activity (distance traveled) (C57BL/6 J mice; 0.03 mg/kg s.c.)	Locomotor activity (distance traveled) (C57BL/6 J mice; 0.1 mg/kg s.c.)	Locomotor activity (distance traveled) (C57BL/6 J mice; 0.3 mg/kg s.c.)	Locomotor activity (distance traveled) (C57BL/6 J mice; 1 mg/kg s.c.)	Locomotor activity (distance traveled) (C57BL/6 J mice; 3 mg/kg s.c.)	Locomotor activity (distance traveled) (C57BL/6 J mice; 10 mg/kg s.c.)	Locomotor activity (distance traveled) (C57BL/6 J mice; 30 mg/kg s.c.)	EC50 (h5-HT2C) [nM]	Emax (h5-HT2C) [%]	Locomotor activity (distance traveled) (C57BL/6 J mice; 0.01 mg/kg s.c.)	Emax (h5-HT2C; normalized to maximal effect of 5-HT) [%]
CCc1cc(OC)c(CC(C)N)cc1OC (stereo not drawn) [DOET, 4-ethyl-2,5-dimethoxyamphetamine]	> 13000											
COc1cc(CC(C)N)c(OC)cc1C (stereo not drawn) [DOM, 4-methyl-2,5-dimethoxyamphetamine]	> 7500	2,696 ± 154 cm	2,522 ± 203 cm	3,051 ± 367 cm	4,272 ± 215 cm	3,556 ± 278 cm	2,186 ± 443 cm	606 ± 47 cm				
CCCc1cc(OC)c(CC(C)N)cc1OC.Cl (stereo not drawn) [DOPR, 4-propyl-2,5-dimethoxyamphetamine hydrochloride]		2,493 ± 199 cm	2,791 ± 131 cm	3,680 ± 100 cm	3,500 ± 278 cm	1,648 ± 262 cm	665 ± 82 cm		0.93	99	2,728 ± 251 cm	
CCCCc1cc(OC)c(CC(C)N)cc1OC (stereo not drawn) [DOBU, 4-butyl-2,5-dimethoxyamphetamine]	> 13000	2,386 ± 181 cm	2,342 ± 184 cm	2,535 ± 61 cm	3,030 ± 217 cm	3,348 ± 297 cm	1,167 ± 195 cm	793 ± 154 cm	0.13			95
CCCCCc1cc(OC)c(CC(C)N)cc1OC (stereo not drawn) [DOAM, 4-amyl-2,5-dimethoxyamphetamine]	> 13000	2,867 ± 167 cm	2,677 ± 103 cm	2,307 ± 244 cm	2,421 ± 129 cm	2,884 ± 249 cm	3,433 ± 325 cm	1,724 ± 138 cm	0.9	94		
COc1ccc(OC)c(CC(C)N)c1.Cl (stereo not drawn) [2,5-DMA, 2,5-Dimethoxyamphetamine hydrochloride]	> 13000	2,854 ± 266 cm	2,763 ± 284 cm	2,584 ± 157 cm	2,630 ± 184 cm	2,780 ± 415 cm	1,801 ± 171 cm	1,169 ± 214 cm	124	103		
